The test system of one assay is LNCaP cells. In words: LNCaP cell viability assay (CellTiter-Glo). The format is cell-based. The conditions noted are these: Homo sapiens. The essentials: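 LNCaP cells, 5000/well, exposed to compounds in 12-point 3-fold serial dilution (top 10 μM) for 3 days. Viability by CellTiter-Glo luminescence, normalized to untreated cells; IC50 by least-squares nonlinear regression.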
(In ATP-based viability assays light output follows the ATP content of the culture.)

For the next assay, the system named is Kasumi-1. In words: Cell viability assay, Kasumi-1. The format is cell-based. The following applies: Homo sapiens, Kasumi-1, Acute myeloid leukemia. How it is done: (§1) Cells were seeded at a density of 5000 cells per well in 96-well assay plates and treated with test compounds following a 12-point 3-fold serial dilution. Three days later, cell viability was determined using the CellTiter-Glo assay kit according to the manufacturer's instructions. The dose-response curves were determined and IC50 values were calculated using the GraphPad Prism software following a nonlinear regression (least squares fit) method.
(§2) The IC50 value of each compound was determined as described in FIG. 4 and calculated using the GraphPad Prism 5.0 software.

The next assay deals with MOLM-13. In words: Cell viability assay, MOLM-13. The format is cell-based. The conditions noted are these: Homo sapiens, MOLM-13, Acute monocytic leukemia. How it is done:
as §1, §2

The test system of the next assay is HL-60. Description: Cell viability assay, HL-60. The conditions noted are these: Homo sapiens, HL-60, Acute myeloid leukemia. The assay is classed as cell-based. The procedure:
as §1, §2

A further assay deals with L-363. In words: Cell viability assay, L-363. The assay is classed as cell-based. The conditions noted are these: Homo sapiens, L-363, Multiple myeloma. How it is done: as §1, §2
For another assay, the system named is AMO-1. In words: Cell viability assay, AMO-1. The assay is classed as cell-based. The following applies: Homo sapiens, AMO1, AMO-1, Multiple Myeloma. The procedure: as §1, §2
The subject of a further assay is WSU-DLCL2. Description: Cell viability assay, WSU-DLCL2. The assay is classed as cell-based. The following applies: Homo sapiens, WSUDLCL2, WSU-DLCL2, Diffuse large B-cell lymphoma. How it is done: as §1, §2
For a further assay, the system named is Karpas-422. Description: Cell viability assay, Karpas-422. The format is cell-based. The conditions noted are these: Homo sapiens, Karpas-422, Diffuse large B-cell lymphoma. The procedure: as §1, §2
A further assay concerns Pfeiffer. In words: Cell viability assay, Pfeiffer. The assay is classed as cell-based. The conditions noted are these: Homo sapiens, Diffuse large B-cell lymphoma. How it is done: as §1, §2
For a further assay, the system named is SU-DHL-1. Description: Cell viability assay, SU-DHL-1. The assay is classed as cell-based. The conditions noted are these: Homo sapiens, SU-DHL-1, Diffuse large B-cell lymphoma. How it is done:
as §1, §2

For another assay, the system named is NCI-H520. Description: Cell viability assay, NCI-H520. The assay is classed as cell-based. The following applies: Homo sapiens, NCI-H520, Non-small cell lung cancer. How it is done:
as §1, §2

The next assay concerns LK-2. In words: Cell viability assay, LK-2. The format is cell-based. The conditions noted are these: Homo sapiens, LK-2, Non-small cell lung cancer. How it is done: as §1, §2
A further assay relates to MCF-7. Description: Cell viability assay, MCF-7. The assay is classed as cell-based. The following applies: Homo sapiens, MCF7, MCF-7, breast carcinoma. How it is done: as §1, §2
The subject of the next assay is P300/CBP. Description: Immunoblotting of P300/CBP protein levels in LNCaP or 22RV1 cells. The assay is classed as cell-based. The following applies: LNCaP cells, 10 nM single dose (FIG. 8). How it is done:
Specific exemplary bivalent compounds were characterized in LNCaP or 22RV1 cells. LNCaP or 22RV1 cells that express CBP/P300 proteins were treated with GNE-781 or the bivalent compounds disclosed herein (P-001 to P-174) for indicated hours. Cells were collected, lysed and subject to immunoblotting using an antibody specific to P300 or CBP proteins. Tubulin or vinculin was included as the loading control. DMSO was used as the negative control.
Cultured cells or tissue chunks were washed with cold PBS once and lysed in cold RIPA buffer supplemented with protease inhibitors and phosphatase inhibitors (Beyotime Biotechnology). The solutions were then incubated at 4° C. for 30 minutes with gentle agitation to fully lyse cells. Cell lysates were centrifuged at 13,000 rpm for 10 minutes at 4° C. and pellets were discarded. Total protein concentrations in the lysates were determined by BCA assays (Beyotime Biotechnology). Cell lysates were mixed with Laemmli loading buffer to 1× and heated at 99° C. for 5 min. Proteins were resolved on SDS-PAGE and visualized by chemiluminescence. Images were taken by a ChemiDoc MP Imaging system (Bio-Rad). Protein bands were quantitated using the accompanied software provided by Bio-Rad.
Background: In western blotting, separated proteins are transferred to a membrane and probed.

Assay [1] deals with T1, P300 (Homo sapiens, UniProt Q09472). In words: Pharmacodynamic study, P300 in 22RV1 subcutaneous xenograft tumors. The format is in vivo, Athymic nude mice. The conditions noted are these: single dose 40 mg/kg, i.p. or p.o., six hours after administration (FIG. 9). Further details: from tissue; host or cells: 22RV1 subcutaneous xenograft tumours in athymic nude mice. How it is done:
In addition to cultured cells, athymic nude mice bearing 22RV1 subcutaneous xenograft tumors at the right flank were intraperitoneally or orally treated with 40 mg/kg bivalent compounds. Six hours after drug administration, animals were sacrificed for immunoblotting of P300 and CBP in homogenized xenograft tumor masses. […] Moreover, ICR mice were orally treated with 40 mg/kg bivalent compounds. Six hours after drug administration, animals were sacrificed for immunoblotting of CBP in homogenized lung tissues.
Athymic nude mice bearing 22RV1 subcutaneous xenograft tumors at the right flank were intraperitoneally or orally treated with selected bivalent compounds at 40 mg/kg. Six hours after drug administration, animals were sacrificed, and xenograft tumors were collected for immunoblotting of P300 and CBP.
All animal experiments were performed under protocols approved by the Institutional Animal Care and Use Committee (IACUC) of Cullgen. Athymic nude mice (male, 5-weeks old) received 5 million 22RV1 cells subcutaneously inoculated at the right flank site. Twenty days following inoculation, tumors were approximately 500 mm^3 in size. Tumor-bearing mice were treated intraperitoneally or via oral gavage with vehicle or bivalent compounds at indicated doses. 6 hours after drug administration, animals were sacrificed, tumors were resected. Small chunks of tumors were homogenized for immunoblotting of P300/CBP and other proteins as indicated. Alternatively, ICR mice (male, 5-weeks old) were treated via oral gavage with vehicle or bivalent compounds at indicated doses. 6 hours after drug administration, animals were sacrificed, lung tissues were resected. Small chunks of lung tissues were homogenized for immunoblotting of CBP and other proteins as indicated.

Assay [2] deals with T1, P300. Description: Immunoblotting of P300 protein levels in LNCaP or 22RV1 cells. The assay is classed as cell-based. Further details: LNCaP or 22RV1 cells that express CBP/P300 proteins were treated with GNE-781 or the bivalent compounds; endogenous in cells; host or cells: LNCaP (clone FGC) or 22RV1 cells. The conditions noted are these: for inhibition at 0.01 µM: percentage of inhibition of p300 at 10 nM (Table 2), read-out: Degradation (10 nM). The procedure, abridged: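 LNCaP or 22RV1 cells treated with compounds for indicated hours, DMSO as negative control. RIPA lysates resolved by SDS-PAGE and immunoblotted for P300 or CBP, tubulin or vinculin as loading control; chemiluminescent bands quantitated.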

[3] abbreviates: 72 h, LNCaP prostate cancer cell viability inhibition, 3 days, CellTiter-Glo (Table 2).
Setting [4] is: cell viability, LNCaP clone FGC, Prostate carcinoma (Table 4).

The structures appear in SMILES notation. “Also recorded” adds a separate entry of the source.

T1 sequence (Q09472 whole entry): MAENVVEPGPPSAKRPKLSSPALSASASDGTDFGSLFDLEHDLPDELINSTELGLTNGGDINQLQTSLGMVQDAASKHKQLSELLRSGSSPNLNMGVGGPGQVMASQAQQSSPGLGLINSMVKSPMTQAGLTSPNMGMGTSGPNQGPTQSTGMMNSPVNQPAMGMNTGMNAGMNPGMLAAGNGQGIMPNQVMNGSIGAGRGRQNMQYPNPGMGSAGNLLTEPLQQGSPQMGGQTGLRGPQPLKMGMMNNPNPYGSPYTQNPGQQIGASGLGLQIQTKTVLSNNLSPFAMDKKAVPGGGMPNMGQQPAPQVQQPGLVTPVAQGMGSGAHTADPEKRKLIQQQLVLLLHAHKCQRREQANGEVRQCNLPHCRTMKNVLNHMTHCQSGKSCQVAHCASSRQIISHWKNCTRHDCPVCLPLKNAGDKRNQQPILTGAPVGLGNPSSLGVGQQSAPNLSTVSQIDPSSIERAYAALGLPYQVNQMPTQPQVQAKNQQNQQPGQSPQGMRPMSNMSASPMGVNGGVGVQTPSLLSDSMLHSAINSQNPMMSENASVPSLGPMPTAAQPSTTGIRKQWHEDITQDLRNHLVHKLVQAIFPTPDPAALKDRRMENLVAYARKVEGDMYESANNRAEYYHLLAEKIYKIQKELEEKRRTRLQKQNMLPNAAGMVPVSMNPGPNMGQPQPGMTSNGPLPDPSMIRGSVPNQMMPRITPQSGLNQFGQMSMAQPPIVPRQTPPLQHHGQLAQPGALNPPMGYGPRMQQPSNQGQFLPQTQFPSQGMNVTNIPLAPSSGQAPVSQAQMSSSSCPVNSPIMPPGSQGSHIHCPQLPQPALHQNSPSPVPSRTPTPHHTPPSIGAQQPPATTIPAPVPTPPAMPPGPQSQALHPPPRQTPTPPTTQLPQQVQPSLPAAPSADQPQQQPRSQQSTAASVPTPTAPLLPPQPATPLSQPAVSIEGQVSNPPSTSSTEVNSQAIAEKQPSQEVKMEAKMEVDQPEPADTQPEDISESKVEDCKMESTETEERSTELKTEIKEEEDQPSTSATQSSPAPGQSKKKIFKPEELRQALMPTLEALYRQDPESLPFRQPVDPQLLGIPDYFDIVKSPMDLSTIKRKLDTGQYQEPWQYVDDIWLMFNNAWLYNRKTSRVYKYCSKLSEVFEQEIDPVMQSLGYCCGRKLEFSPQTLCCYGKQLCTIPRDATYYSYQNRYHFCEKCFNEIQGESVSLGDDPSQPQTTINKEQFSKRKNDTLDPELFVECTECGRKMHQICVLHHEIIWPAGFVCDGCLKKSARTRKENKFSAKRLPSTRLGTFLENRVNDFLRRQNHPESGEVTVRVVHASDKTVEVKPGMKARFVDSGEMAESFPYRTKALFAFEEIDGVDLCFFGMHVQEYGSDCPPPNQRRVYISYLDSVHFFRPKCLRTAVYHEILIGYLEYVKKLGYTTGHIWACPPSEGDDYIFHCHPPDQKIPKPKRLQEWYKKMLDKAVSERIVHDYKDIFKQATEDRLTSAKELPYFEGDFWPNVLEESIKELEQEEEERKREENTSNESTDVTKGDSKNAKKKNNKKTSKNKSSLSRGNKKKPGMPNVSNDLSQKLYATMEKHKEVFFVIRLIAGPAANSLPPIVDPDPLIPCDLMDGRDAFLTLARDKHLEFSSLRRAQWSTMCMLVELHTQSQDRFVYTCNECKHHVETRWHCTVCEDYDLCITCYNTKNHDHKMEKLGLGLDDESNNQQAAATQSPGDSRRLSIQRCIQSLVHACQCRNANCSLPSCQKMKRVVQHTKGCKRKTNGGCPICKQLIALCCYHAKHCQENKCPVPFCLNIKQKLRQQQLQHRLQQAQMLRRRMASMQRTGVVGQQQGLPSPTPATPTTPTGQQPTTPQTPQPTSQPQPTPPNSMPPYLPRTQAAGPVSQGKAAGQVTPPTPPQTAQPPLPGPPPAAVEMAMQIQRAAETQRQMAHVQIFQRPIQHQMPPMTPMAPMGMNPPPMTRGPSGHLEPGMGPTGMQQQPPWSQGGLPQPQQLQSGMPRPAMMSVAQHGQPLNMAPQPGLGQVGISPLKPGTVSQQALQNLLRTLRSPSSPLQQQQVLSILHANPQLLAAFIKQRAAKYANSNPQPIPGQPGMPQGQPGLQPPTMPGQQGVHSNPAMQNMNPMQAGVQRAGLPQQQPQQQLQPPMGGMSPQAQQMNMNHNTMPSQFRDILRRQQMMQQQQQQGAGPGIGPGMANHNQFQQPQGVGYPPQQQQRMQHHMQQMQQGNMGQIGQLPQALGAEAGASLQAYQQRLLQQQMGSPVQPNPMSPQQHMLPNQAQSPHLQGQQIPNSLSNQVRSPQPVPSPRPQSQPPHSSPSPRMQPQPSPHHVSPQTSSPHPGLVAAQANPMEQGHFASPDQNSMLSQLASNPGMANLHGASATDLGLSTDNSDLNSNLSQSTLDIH

On to `CNC(=O)N1CCc2c(c(N3CCCc4cc(-c5cnn(C)c5)c(C(F)F)cc43)nn2C2CCN(C(=O)CCCCCCCNc3ccc4c(c3)C(=O)N(C3CCC(=O)NC3=O)C4=O)CC2)C1` (centres unmarked) [P-007, 3-(7-(difluoromethyl)-6-(1-methyl-1H-pyrazol-4-yl)-3,4-dihydroquinolin-1(2H)-yl)-1-(1-(8-((2-(2,6-dioxopiperidin-3-yl)-1,3-dioxoisoindolin-5-yl)amino)octanoyl)piperidin-4-yl)-N-methyl-1,4,6,7-tetrahydro-5H-pyrazolo[4,3-c]pyridine-5-carboxamide], for which the 50% inhibitory concentration (IC50) (as a rule, the concentration that gives 50% inhibition) came to 1.2 nM in the assay with LNCaP cells (setting [3]); 1.3 nM in the assay with LNCaP cells (setting [4]); 87.8 nM with Kasumi-1; 7.7 nM in the assay with MOLM-13; 17 nM in the assay with HL-60; 3 nM with L-363. The IC50 in the assay on AMO-1 came to 38.7 nM; in the assay on WSU-DLCL2 it was 0.4 nM; in the assay with Karpas-422, 6.2 nM; in the assay on Pfeiffer it was 2.1 nM; in the assay with SU-DHL-1, 3.4 nM; in the assay with NCI-H520 it was 2.8 nM. Moreover, the IC50 is 2.6 nM in the assay on LK-2 and 2.2 nM with MCF-7. Further, the “degradation of P300/CBP in combination with pomalidomide, MG-132, Bortezomib or MLN4924” value in the assay with P300/CBP was “compromised; also recorded: neutralized”. Moreover, the “P300 protein levels in 22RV1 xenograft tumors” value at P300 [1] is “significantly reducing”. In addition, the inhibition at 0.01 µM at P300 [2] is more than 80%.
`CNC(=O)N1CCc2c(c(N3CCCc4cc(-c5cnn(C)c5)c(C(F)F)cc43)nn2C2CCN(C(=O)CCCCCNc3cccc4c3C(=O)N(C3CCC(=O)NC3=O)C4=O)CC2)C1` (centres unmarked) [P-034, 3-(7-(difluoromethyl)-6-(1-methyl-1H-pyrazol-4-yl)-3,4-dihydroquinolin-1(2H)-yl)-1-(1-(6-((2-(2,6-dioxopiperidin-3-yl)-1,3-dioxoisoindolin-4-yl)amino)hexanoyl)piperidin-4-yl)-N-methyl-1,4,6,7-tetrahydro-5H-pyrazolo[4,3-c]pyridine-5-carboxamide]: the IC50 in the assay on LNCaP cells (setting [3]) came out at 0.4 nM; with LNCaP cells (setting [4]), 0.6 nM; with Kasumi-1 it was 1150 nM; in the assay with MOLM-13, 6.9 nM; with HL-60, 2.9 nM; in the assay on L-363, 0.4 nM. In addition, the IC50 stood at 141 nM with AMO-1; 0.4 nM in the assay with WSU-DLCL2; 0.9 nM in the assay on Karpas-422; 0.7 nM in the assay on Pfeiffer; 0.8 nM in the assay on SU-DHL-1; 2 nM in the assay on NCI-H520. Further, the IC50 was 7 nM with LK-2 and 65.4 nM with MCF-7. Also, the “degradation of P300/CBP in combination with pomalidomide, MG-132, Bortezomib or MLN4924” value with P300/CBP is on record as “compromised; also recorded: neutralized”. In addition, the “P300 protein levels in 22RV1 xenograft tumors” value at P300 [1] was “significantly reducing”. Moreover, the “P300 protein levels, dependence on interaction with cereblon” value on P300 [2] (LNCaP or 22RV1 cells, various concentrations (FIG. 7)) is on record as “P300 degradation induced by P-034”. Also, on P300 [2], the inhibition at 0.01 µM was more than 80%.

Values taken from US20230073777A1, “CYCLIC-AMP RESPONSE ELEMENT BINDING PROTEIN (CBP) AND/OR ADENOVIRAL E1A BINDING PROTEIN OF 300 KDA (P300) DEGRADATION COMPOUNDS AND METHODS OF USE” (CULLGEN (SHANGHAI), INC., priority 2019, published 2023).
